Test results published in PubChem BioAssay AID248 (DTP/NCI, 2004).
Several values for one entry are separate records, joined by “and”; a condition that tells them apart may be missing. Equal values may be shown once. Toxic doses and inconclusive results are not listed. Rule as the data show it: active = T/C of 150% or more; inactive = T/C below 125%.

Tested on: L1210 leukemia ip in BDF1 mice, survival T/C
Assay: NCI In Vivo Anticancer Drug Screen. Data for tumor model L1210 Leukemia (intraperitoneal) in B6D2F1 (BDF1) mice
Conditions: endpoint: mean survival time, higher = longer survival
Procedure, shortened: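 In this screen, tumor-bearing mice given compound are compared to those given vehicle, and their survival values are reported as a treated-to-control quotient.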

[1] = dose: 50.0 mg/kg/injection, schedule: Q01DX009 (ip), vehicle: saline with Tween-80
[2] = dose: 100.0 mg/kg/injection, schedule: Q01DX009 (ip), vehicle: saline with Tween-80
[3] = dose: 200.0 mg/kg/injection, schedule: Q01DX009 (ip), vehicle: saline with Tween-80
[4] = dose: 100.0 mg/kg/injection, schedule: Q04DX002 (ip), vehicle: Klucel (hydroxypropylcellulose) (HPC)
[5] = dose: 200.0 mg/kg/injection, schedule: Q04DX002 (ip), vehicle: Klucel (hydroxypropylcellulose) (HPC)
[6] = dose: 100.0 mg/kg/injection, schedule: Q01DX001 (ip), vehicle: saline
[7] = dose: 200.0 mg/kg/injection, schedule: Q01DX001 (ip), vehicle: saline
[8] = dose: 100.0 mg/kg/injection, schedule: Q04DX003 (ip), vehicle: Klucel (hydroxypropylcellulose) (HPC)
[9] = dose: 200.0 mg/kg/injection, schedule: Q04DX003 (ip), vehicle: Klucel (hydroxypropylcellulose) (HPC)
[10] = dose: 400.0 mg/kg/injection, schedule: Q04DX003 (ip), vehicle: Klucel (hydroxypropylcellulose) (HPC)
[11] = dose: 400.0 mg/kg/injection, schedule: Q01DX001 (ip), vehicle: saline

Measured: T/C

c1cc[n+](CCSCCSCC[n+]2ccccc2)cc1
inactive: dose: 3.12 mg/kg/injection, schedule: Q01DX009 (ip), vehicle: acetone 97 % of control | dose: 3.12 mg/kg/injection, schedule: Q04DX003 (ip), vehicle: saline 106 % of control | dose: 6.25 mg/kg/injection, schedule: Q01DX009 (ip), vehicle: acetone 95 % of control | dose: 6.25 mg/kg/injection, schedule: Q04DX003 (ip), vehicle: saline 101 % of control | dose: 12.5 mg/kg/injection, schedule: Q01DX001 (ip), vehicle: saline 105 % of control | dose: 12.5 mg/kg/injection, schedule: Q04DX003 (ip), vehicle: saline 97 % of control

C/C=C\c1ccc(OCCOC(=O)Nc2cccc(C(F)(F)F)c2)c(OC)c1
inactive: [1] 102 % of control | [2] 98 % of control and 91 % of control | [3] 95 % of control and 90 % of control | dose: 400.0 mg/kg/injection, schedule: Q01DX009 (ip), vehicle: saline with Tween-80 98 % of control

N/C(=N\OC(=O)c1ccccc1)c1ccccc1
inactive: dose: 50.0 mg/kg/injection, schedule: Q04DX002 (ip), vehicle: Klucel (hydroxypropylcellulose) (HPC) 96 % of control | [4] 104 % of control | [5] 93 % of control

O=c1[nH]cnc2c1ncn2Cc1cccc2ccccc12
inactive: [4] 94 % of control | [5] 94 % of control | dose: 400.0 mg/kg/injection, schedule: Q04DX002 (ip), vehicle: Klucel (hydroxypropylcellulose) (HPC) 94 % of control

COc1ccc(N(C)CC(O)CN)cc1 (stereo not given)
inactive: [6] 108 % of control | [7] 104 % of control

CC1=CC2C(O)(CC(CO)=CC3C4C(C)(C)C4(O)C(O)C(C)C32O)C1=O (stereo not given)
inactive: dose: 50.0 mg/kg/injection, schedule: Q01DX001 (ip), vehicle: saline sonified 112 % of control | dose: 100.0 mg/kg/injection, schedule: Q01DX001 (ip), vehicle: saline sonified 101 % of control | dose: 200.0 mg/kg/injection, schedule: Q01DX001 (ip), vehicle: saline sonified 91 % of control

C/C(=C1/SC(=S)NC1=O)c1ccccc1O
inactive: [6] 104 % of control | [7] 104 % of control

CN(N=O)C(=O)NC1CC2CCC1C2 (stereo not given)
inactive: dose: 4.0 mg/kg/injection, schedule: Q01DX001 (ip), vehicle: other 104 % of control | dose: 8.0 mg/kg/injection, schedule: Q01DX001 (ip), vehicle: other 104 % of control | dose: 16.0 mg/kg/injection, schedule: Q01DX001 (ip), vehicle: other 108 % of control | dose: 31.0 mg/kg/injection, schedule: Q01DX001 (ip), vehicle: other 104 % of control | dose: 62.0 mg/kg/injection, schedule: Q01DX001 (ip), vehicle: other 100 % of control | dose: 125.0 mg/kg/injection, schedule: Q01DX001 (ip), vehicle: other 104 % of control | dose: 250.0 mg/kg/injection, schedule: Q01DX001 (ip), vehicle: other 112 % of control | dose: 375.0 mg/kg/injection, schedule: Q01DX001 (ip), vehicle: other 112 % of control | dose: 500.0 mg/kg/injection, schedule: Q01DX001 (ip), vehicle: other 118 % of control

Cc1ccc(S(=O)(=O)OCC(CO)(CO)[N+](=O)[O-])cc1
inactive: dose: 50.0 mg/kg/injection, schedule: Q01DX009 (ip), vehicle: saline 90 % of control | dose: 100.0 mg/kg/injection, schedule: Q01DX009 (ip), vehicle: saline 92 % of control | dose: 100.0 mg/kg/injection, schedule: Q04DX003 (ip), vehicle: saline 97 % of control | dose: 200.0 mg/kg/injection, schedule: Q01DX009 (ip), vehicle: saline 90 % of control | dose: 200.0 mg/kg/injection, schedule: Q04DX003 (ip), vehicle: saline 88 % of control

O=P(N=C=S)(N=C=S)N=C=S
inactive: dose: 75.0 mg/kg/injection, schedule: Q01DX001 (ip), vehicle: other 114 % of control

Cc1ccccc1NC(=S)Nc1ccccc1
inactive: dose: 100.0 mg/kg/injection, schedule: Q04DX002 (ip), vehicle: gum acacia 96 % of control | dose: 200.0 mg/kg/injection, schedule: Q04DX002 (ip), vehicle: gum acacia 96 % of control | dose: 400.0 mg/kg/injection, schedule: Q04DX002 (ip), vehicle: gum acacia 89 % of control

CC(C)CCCC(C)C1CCC2C3CCC4CN(N=O)CCC4C3CCC12C (stereo not given)
inactive: dose: 100.0 mg/kg/injection, schedule: Q01DX001 (sc), vehicle: steriod suspending solution 102 % of control | dose: 177.6 mg/kg/injection, schedule: Q01DX001 (sc), vehicle: steriod suspending solution 95 % of control | dose: 200.0 mg/kg/injection, schedule: Q01DX001 (sc), vehicle: steriod suspending solution 102 % of control | dose: 266.8 mg/kg/injection, schedule: Q01DX001 (sc), vehicle: steriod suspending solution 98 % of control | dose: 600.0 mg/kg/injection, schedule: Q01DX001 (sc), vehicle: steriod suspending solution 98 % of control

CSc1ccc(NC(=O)Nc2nccs2)cc1
inactive: dose: 200.0 mg/kg/injection, schedule: Q04DX003 (ip), vehicle: saline sonified 87 % of control | dose: 400.0 mg/kg/injection, schedule: Q04DX003 (ip), vehicle: saline sonified 92 % of control

CCN(CC)C(=S)N1C(=O)C2C3CCC(O3)C2C1=O (stereo not given)
inactive: dose: 6.25 mg/kg/injection, schedule: Q01DX009 (ip), vehicle: saline with Tween-80 97 % of control | dose: 6.25 mg/kg/injection, schedule: Q04DX002 (ip), vehicle: saline 107 % of control | dose: 12.5 mg/kg/injection, schedule: Q01DX009 (ip), vehicle: saline with Tween-80 101 % of control | dose: 12.5 mg/kg/injection, schedule: Q04DX002 (ip), vehicle: saline 104 % of control | dose: 25.0 mg/kg/injection, schedule: Q01DX009 (ip), vehicle: saline with Tween-80 101 % of control | dose: 25.0 mg/kg/injection, schedule: Q04DX002 (ip), vehicle: saline 100 % of control

CCc1c[n+]([O-])c(C)cc1C(=O)O
inactive: dose: 100.0 mg/kg/injection, schedule: Q01DX009 (ip), vehicle: Klucel (hydroxypropylcellulose) (HPC) 92 % of control | [8] 97 % of control | dose: 200.0 mg/kg/injection, schedule: Q01DX009 (ip), vehicle: Klucel (hydroxypropylcellulose) (HPC) 92 % of control | [9] 95 % of control | dose: 400.0 mg/kg/injection, schedule: Q01DX009 (ip), vehicle: Klucel (hydroxypropylcellulose) (HPC) 92 % of control | [10] 95 % of control

Cc1cc(N(C)C)c(C(C)C)cc1O (tested in a mixture with another compound)
inactive: dose: 3.2 micrograms/kg/injection, schedule: Q01DX009 (ip), vehicle: saline 95 % of control | dose: 6.3 micrograms/kg/injection, schedule: Q01DX009 (ip), vehicle: saline 90 % of control | dose: 12.5 micrograms/kg/injection, schedule: Q01DX009 (ip), vehicle: saline 105 % of control

Cc1ccc2c(ccc3ccccc32)n1
inactive: [8] 97 % of control | [9] 90 % of control | [10] 90 % of control

COc1cc(OC)c(OC)cc1C=NC1CCCCCCC1
inactive: [1] 91 % of control | [2] 102 % of control | [3] 102 % of control

NC(=O)N=C(N)N
inactive: [6] 92 % of control | [7] 90 % of control | [11] 92 % of control

O=C(NCCCl)NC1OCC(O)C(O)C1O (stereo not given)
inactive: [6] 112 % of control | [7] 97 % of control | [11] 103 % of control
